Test results from PubChem BioAssay (NCI).
“And” between values parts separate entries of the source, which are not always exact repeats. Identical values can stand only once.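 Interpolation was linear, between the two tested concentrations surrounding the appropriate level; five concentrations were tested over 48 hours in 96-well plates. GI50 is the concentration that inhibits growth by half. Definition used: TGI = concentration required for complete inhibition of growth.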

Legend:
Assay in all cases: NCI tumour cell line growth inhibition, 48 h
A498 renal = test system: A498 renal
DLD-1 colon = test system: DLD-1 colon
IGROV1 ovarian = test system: IGROV1 ovarian
LXFL 529 NSCLC = test system: LXFL 529 NSCLC
MCF7 breast = test system: MCF7 breast
NCI-H23 lung = test system: NCI-H23 lung
OVCAR-4 ovarian = test system: OVCAR-4 ovarian
OVCAR-8 ovarian = test system: OVCAR-8 ovarian
PC-3 prostate = test system: PC-3 prostate
MDA-MB-435 = test system: MDA-MB-435

## O=C1c2cc([N+](=O)[O-])cc3cc([N+](=O)[O-])cc(c23)C(=O)N1CCCNCCNCCCN1C(=O)c2cc([N+](=O)[O-])cc3cc([N+](=O)[O-])cc(c23)C1=O
A498 renal
  TGI: 13.4 µM
DLD-1 colon
  TGI: 3.24 µM
IGROV1 ovarian
  TGI: 1.74 µM
LXFL 529 NSCLC
  TGI: 0.326 µM
MCF7 breast
  TGI: 11.7 µM
NCI-H23 lung
  TGI: 2.41 µM
OVCAR-4 ovarian
  TGI: 3.31 µM
OVCAR-8 ovarian
  TGI: 3.39 µM
PC-3 prostate
  TGI: 7.87 µM

## OCC1OC(n2cnc3c2NC=NC[C@H]3O)CC1O (stereo not given in full)
A498 renal
  GI50: > 588 µM
  TGI: 481 µM and > 588 µM
DLD-1 colon
  GI50: > 588 µM
  TGI: 500 µM and > 588 µM
IGROV1 ovarian
  GI50: > 588 µM
  TGI: 500 µM and > 588 µM
LXFL 529 NSCLC
  GI50: > 588 µM
  TGI: > 588 µM
MCF7 breast
  TGI: 500 µM
MDA-MB-435
  TGI: > 500 µM
NCI-H23 lung
  GI50: > 588 µM
  TGI: 500 µM and > 588 µM
OVCAR-4 ovarian
  GI50: > 588 µM
  TGI: 500 µM and > 588 µM
OVCAR-8 ovarian
  TGI: 500 µM
PC-3 prostate
  TGI: > 500 µM

## CN(C)C1=NC2=S(SC(Nc3ccccc3)=N2)S1 (stereo not given)
A498 renal
  TGI: 46.1 µM
DLD-1 colon
  TGI: > 100 µM
IGROV1 ovarian
  TGI: > 100 µM
LXFL 529 NSCLC
  TGI: 62.9 µM
NCI-H23 lung
  TGI: > 100 µM
OVCAR-4 ovarian
  TGI: > 100 µM
OVCAR-8 ovarian
  TGI: > 100 µM

## Cc1c(C(=O)/C=C/c2c(Cl)cccc2Cl)c(=O)n(-c2ccccc2)n1C
A498 renal
  TGI: 98.4 µM
IGROV1 ovarian
  TGI: > 100 µM
LXFL 529 NSCLC
  TGI: 31.1 µM
OVCAR-8 ovarian
  TGI: > 100 µM

## O=C(O)c1cccc2cccc(C(=O)O)c12.[Hg]
A498 renal
  GI50: 18.3 µM
  TGI: 32.3 µM
DLD-1 colon
  GI50: 8.42 µM
  TGI: 23 µM
IGROV1 ovarian
  GI50: 15.8 µM
  TGI: 29.2 µM
LXFL 529 NSCLC
  GI50: 14.6 µM
  TGI: 28.1 µM
NCI-H23 lung
  GI50: 15.7 µM
  TGI: 29.9 µM
OVCAR-4 ovarian
  GI50: 18 µM
  TGI: 32.6 µM
OVCAR-8 ovarian
  GI50: 20.5 µM
  TGI: 46.2 µM

## COC1OC(COS(=O)(=O)c2ccc(C)cc2)C(O)C(OS(=O)(=O)c2ccc(C)cc2)C1OS(=O)(=O)c1ccc(C)cc1 (stereo not given)
DLD-1 colon
  TGI: > 100 µM
IGROV1 ovarian
  TGI: > 100 µM
LXFL 529 NSCLC
  TGI: > 100 µM
NCI-H23 lung
  TGI: > 100 µM
OVCAR-4 ovarian
  TGI: > 100 µM
OVCAR-8 ovarian
  TGI: > 100 µM

## CCOC(=O)NC(=O)c1cn(CCCOC(=O)NCCCCCCNC(=O)OCCCn2cc(C(=O)NC(=O)OCC)c(=O)[nH]c2=O)c(=O)[nH]c1=O
A498 renal
  TGI: 44.1 µM
DLD-1 colon
  TGI: > 100 µM
IGROV1 ovarian
  TGI: > 100 µM
LXFL 529 NSCLC
  TGI: > 100 µM
OVCAR-4 ovarian
  TGI: 29.6 µM
OVCAR-8 ovarian
  TGI: > 100 µM

## NC(=O)CCC(NC(=O)Cc1ccccc1)C(=O)O (stereo not given) (tested in a mixture with another compound)
A498 renal
  TGI: > 8130 µM
DLD-1 colon
  TGI: > 8130 µM
IGROV1 ovarian
  TGI: > 8130 µM
LXFL 529 NSCLC
  TGI: > 8130 µM
NCI-H23 lung
  TGI: > 8130 µM
OVCAR-4 ovarian
  TGI: > 8130 µM
OVCAR-8 ovarian
  TGI: > 8130 µM

## CC1=NC(C(C)C)C(=O)O1 (stereo not given)
A498 renal
  TGI: > 100 µM
DLD-1 colon
  TGI: > 100 µM
IGROV1 ovarian
  TGI: > 100 µM
LXFL 529 NSCLC
  TGI: > 100 µM
NCI-H23 lung
  TGI: > 100 µM
OVCAR-4 ovarian
  TGI: > 100 µM
OVCAR-8 ovarian
  TGI: > 100 µM

## CC(C)NC(=O)OCc1c(COC(=O)NC(C)C)c(-c2ccc(Cl)c(Cl)c2)n2c1CCC2
A498 renal
  TGI: 43.3 µM
DLD-1 colon
  TGI: > 72.3 µM
IGROV1 ovarian
  TGI: 70.6 µM
LXFL 529 NSCLC
  TGI: 16.3 µM
MCF7 breast
  TGI: > 100 µM
MDA-MB-435
  TGI: > 100 µM
NCI-H23 lung
  TGI: 60.9 µM
OVCAR-4 ovarian
  TGI: > 78.8 µM
OVCAR-8 ovarian
  TGI: 73.4 µM
PC-3 prostate
  TGI: > 100 µM

## CC(=O)OC1CC2C(C)(C)C(=O)C=C[C@]2(C)C2CCC3(C)C(c4ccoc4)[C@@H](O)[C@H]4O[C@]43[C@]12C (stereo not given in full)
A498 renal
  TGI: 49.7 µM
DLD-1 colon
  TGI: 41 µM
IGROV1 ovarian
  TGI: 46.2 µM
LXFL 529 NSCLC
  TGI: 37 µM
NCI-H23 lung
  TGI: 34.4 µM
OVCAR-4 ovarian
  TGI: 38.8 µM
OVCAR-8 ovarian
  TGI: 36.2 µM

## COc1cc(Nc2nc3cc(C(F)(F)F)ccc3nc2-c2ccccc2)cc(OC)c1OC
A498 renal
  TGI: > 100 µM
DLD-1 colon
  TGI: > 100 µM
IGROV1 ovarian
  TGI: > 100 µM
LXFL 529 NSCLC
  TGI: > 100 µM
NCI-H23 lung
  TGI: > 100 µM
OVCAR-4 ovarian
  TGI: 51.3 µM
OVCAR-8 ovarian
  TGI: > 100 µM

## CC1=CC(=O)c2c(C=O)c(O)c(O)c(C(C)C)c2C1=O
A498 renal
  TGI: 78 µM
DLD-1 colon
  TGI: > 68.4 µM
IGROV1 ovarian
  TGI: 63.9 µM
LXFL 529 NSCLC
  TGI: 41.4 µM
NCI-H23 lung
  TGI: > 85.5 µM
OVCAR-4 ovarian
  TGI: 23.8 µM
OVCAR-8 ovarian
  TGI: > 56.5 µM

## CC(C(=O)O)/C(=C\c1ccc2c(c1)OCO2)C(=O)O (stereo not given)
A498 renal
  TGI: > 100 µM
DLD-1 colon
  TGI: > 100 µM
IGROV1 ovarian
  TGI: > 100 µM
LXFL 529 NSCLC
  TGI: > 100 µM
MCF7 breast
  TGI: > 100 µM
MDA-MB-435
  TGI: > 100 µM
NCI-H23 lung
  TGI: > 100 µM
OVCAR-4 ovarian
  TGI: > 100 µM
OVCAR-8 ovarian
  TGI: > 100 µM
PC-3 prostate
  TGI: > 100 µM

## COC(=O)C1=C(CS(=O)c2ccc([N+](=O)[O-])cc2[N+](=O)[O-])ON(C)C1c1ccccc1 (stereo not given)
A498 renal
  TGI: > 100 µM
DLD-1 colon
  TGI: > 100 µM
IGROV1 ovarian
  TGI: > 100 µM
LXFL 529 NSCLC
  TGI: > 92.8 µM
NCI-H23 lung
  TGI: > 100 µM
OVCAR-4 ovarian
  TGI: > 100 µM
OVCAR-8 ovarian
  TGI: > 100 µM

## COc1ccc(NC(=O)CC(=O)N2N=C(N(CCC#N)c3cccc(C)c3)CC2c2ccccc2)cc1 (stereo not given)
DLD-1 colon
  TGI: > 100 µM
IGROV1 ovarian
  TGI: > 100 µM
LXFL 529 NSCLC
  TGI: > 100 µM
NCI-H23 lung
  TGI: > 100 µM
OVCAR-4 ovarian
  TGI: > 100 µM
OVCAR-8 ovarian
  TGI: > 100 µM
